Columns and labels:
Type in all cases: cell-based, mouse
[1] = system: DC (D1, D8, BMDC/RAG2−/−); assay: IL-2 production by DC after stimulation in vitro (IL-2 ELISA of supernatant); settings: splenic (D1) and bone marrow-derived DC (D8, BMDC/RAG2−/−), long- and short-term lines
Description: Antibodies and Reagents. LPS (E. Coli 026:B6, used at 10 μg/ml) and zymosan (used at 10 μg/ml) were obtained from Sigma Chem. (St. Louis, Mo.). rTNF, (San Francisco) and rIL-1. (Genzyme, Cambridge Mass.) were used at 100 U/ml and 10 μg/ml respectively. IFN was kindly provided by Schering-Plough (Dardilli, Fr.) and used at 1000 U/ml. CpG ([…])(SEQ ID NO. 5) and CpG control ([…]) (SEQ ID NO. 6) oligos were purchased from Life Technologies and used at a concentration of 1 µM. PE-conjugated anti-IL-2, PE-conjugated rat Isotype control, biotinilated anti-CD8α and FITC-conjugated anti-CD11c monoclonal antibodies were purchased from Pharmingen. Quantum-red-conjugated streptavidin was obtained from Sigma. Anti-I-A^d/I-E^d mAb (clone M5 /114, rat IgG2b) was kindly provided by Dr. A. Ager (NIMR, London, UK). FITC-conjugated anti-rat was from Jackson ImmunoResearch (West Grove, Pa.). Anti-CD40 antibody [clone FGK45 (10)] was used at a concentration of 20 μg/ml and crosslinked with a monoclonal anti-rat antibody (10 μg/ml, PharMingen).
DC and culture medium. D1 and D8.1 long term DC were cultured in IMDM (Sigma, St. Louis, Mo.) containing 10% heat-inactivated fetal bovine serum (GIBCO), 100 IU penicillin, 100 μg/ml streptomycin, 2 mM L-glutamine (all from Sigma), and 50 μM 2-mercaptoethanol (complete IMDM) with 30% supernatant from R1 medium [supernatant from NIH3T3 fibroblasts transfected with GM-CSF].
Fresh BMDCRAG2−/− were derived from RAG2−/− BALB/c or C57BL/6 bone marrow cells. Usually bone marrow cells cultured for two days and frozen. BMDCRAG2−/− were obtained from defrost cells after 7 days of culture in medium containing 10% of supernatant of GM-CSF transduced B16 tumor cells. BMDCRAG2−/− were used for activation only if they were immature, as judged by low B7.2 and CD40 expression.
IL-2 ELISA. IL-2 ELISA was performed using the DuoSet kit (R and D, Minneapolis, Minn.) and following the manufacturer recommendations. […]

[2] = system: D1 cells; assay: Differential gene expression analysis (Mu6500 GeneChip) in LPS- and TNF-α-stimulated versus unstimulated D1 cells; parameters: key: NC: No change in the level of expression; I: induced (detected only in stimulated cells); U: up-regulated; D: down-regulated; S: suppressed (detected only in unstimulated cells); settings: no asterisk=fold change, *=AvgDiff after stimulation, **=AvgDiff in baseline
Description: (§1) Cells and reagents. The D1 cells were derived from murine splenic DC and maintained in vitro in IMDM supplemented with 30% R1 conditional medium as previously described. LPS (Escherichia coli sero- type 026:B6) was purchased from Sigma Chemical Co. and used at 10 μg/ml. Muriner TNF-α (Genetech Inc., San Francisco. Calif.) was used at 100 U/ml. Cells were grown and harvested at the same time.
RNA extraction, amplification and labeling for hybridization. Antisense cRNA was prepared following Affymetrix (Santa Clara, Calif.) recommendations. Briefly, mRNA was directly extracted from frozen pellets using the DIRECT OLIGOTEX KIT (i.e., column chromatography kit for mRNA purification) from Qiagen (Chatsworth, Calif.) and converted to double-stranded cDNA using a modified oligo dT primer with a 5′T7 RNA polymerase promoter sequence and the SUPER-SCRIPT CHOICE SYSTEM (i.e., reverse transcriptase system) for cDNA synthesis (Life Technologies, Gaithesbourg, Md.). Double-stranded cDNA (0.5 μg) was transcribed to cRNA with the T7 RNA polymerase (T7 MEGASCRIPT KIT (i.e., phage specific in vitro transcription kit); Ambion, Austin, Tex.) in the presence of a mixture of unlabeled ATP, CTP, GTP, UTP and biotin-labeled CTP and UTP (ENZO Diagnostics, Farmingdale, N.Y.). cRNA was purified on an affinity column (RNEASY (i.e., a RNA purification column); Qiagen).
Probe array hybridization and scanning. The Mu6500 GENECHIP (i.e., DNA microarray) array consists of a set of four individual chips, A-D, collectively representing 6,500 murine genes and ESTs. Analysis of the D1 samples was performed by hybridizing the cRNA to the GENECHIP (i.e., DNA microarray) arrays A-D. Probe array hybridizations were carried out as described. cRNA was fragmented to an average size of 50-200 bases, by incubation for 30 min at 94° C. in 40 mM Tris-acetate pH 8.1, 100 mM potassium acetate and 30 mM magnesium acetate.
Samples were then diluted in the hybridization solution (1 M NaCI, 10 mM Tris pH7.6, 0.005% Triton X-100, 0.1 mg/ml herring sperm DNA, BioB-, BioC-, BioD-, cre- control cRNA at a concentration of 1.5, 5, 25, 100 pM, respectively) at a final concentration of 0.05 μg/ml heated at 94° C. for 5 min and placed in the hybridization cartridge (200 μl/chip). Hybridizations were performed at 40° C. for 16 h. Following hybridization the chips were rinsed with 6× SSPE-T (0.9 M NaCI, 60 mM NaH2PO4, 6 mM EDTA, 0.005% Triton X-100 adjusted to pH 7.6) and 0.5× SSPE-T and stained by incubating with 2 μg/ml streptavidin-phycoerythrin (Molecular Probes, Eugene, Oreg.) and 1 mg/ml acetylated BSA (Sigma, St. Louis, Mo.).
The arrays were read at a resolution of 7.5 μm. using a confocal scanner (Affymetrix) and analyzed with the GENECHIP 3.3 GENE EXPRESSION ANALYSIS PROGRAM (i.e., gene expression analysis software) (Affymetrix).
Gene expression analysis was performed on immature, transitional (6 h LPS and TNF-α-activated) and mature (18 h LPS- and TNF-α-activated) D1 cells using GENECHIP (i.e., DNA microarray) oligonucleotide probe arrays representing approximately 6,500 distinct mouse genes and ESTs. The 6,500 probe sets are subdivided in four individual chips, A-D, each containing oligonucleotide probes for about 1,600 genes and ESTs. The hybridized arrays were analyzed using the GENECHIP 3.3 GENE EXPRESSION ANALYSIS PROGRAM (i.e., gene expression analysis software). Data analysis protocols, sensitivity and quantitative aspects of the method have been previously precisely described. In brief, gene probes are represented by 20 perfectly matched 20-mer oligonucleotides (PM) and 20 control oligonucleotides with a single mismatch (MM). Gene expression levels are defined averaging the differences (AvgDiff) between the PM and MM of every probe pair over the entire probe set:
An AvgDiff of 20 approximates the lower value of fluorescence intensity for detected genes. […]

[3] = system: D1 cells; assay: Growth of D1 cells after stimulation (number of viable cells)
Description: D1 cells were stimulated either with LPS or TNF-α for the indicated time. The number of viable cells at the indicated time points is expressed as percentage of seeded cells. LPS, LPS-stimulated cells; TNF-α, TNF-α-stimulated cells; NS, non-stimulated cells. Standard deviations of five independent experiments are reported.
as §1

IL-1 β: inflammatory cytokine (Genzyme)
induction of IL-2 production/secretion by DC [1]: none of the inflammatory cytokines, used individually or added simultaneously to DC cultures, were able to promote IL-2 secretion

tumor necrosis factor [TNFα]
induction of IL-2 production/secretion by DC [1]: none of the inflammatory cytokines, used individually or added simultaneously to DC cultures, were able to promote IL-2 secretion
1AP3 (Y08026) gene expression, stimulated versus unstimulated D1 cells ([2]; 6 h): NC
BTG1 (L16846) gene expression, stimulated versus unstimulated D1 cells ([2]; 6 h): NC
BTG3 (Z72000) gene expression, stimulated versus unstimulated D1 cells ([2]; 6 h): NC
CD14 (M34510) gene expression, stimulated versus unstimulated D1 cells ([2]; 6 h): NC
CD37 (U18372) gene expression, stimulated versus unstimulated D1 cells ([2]; 6 h): NC
CD40 (M833312) gene expression, stimulated versus unstimulated D1 cells ([2]; 6 h): NC
CYL-1 (M64403) gene expression, stimulated versus unstimulated D1 cells ([2]; 6 h): NC
Clqα (X58861) gene expression, stimulated versus unstimulated D1 cells ([2]; 6 h): NC
EtAI (X16151) gene expression, stimulated versus unstimulated D1 cells ([2]; 6 h): NC
F4-80 (X93328) gene expression, stimulated versus unstimulated D1 cells ([2]; 6 h): NC
GAS (U19860) gene expression, stimulated versus unstimulated D1 cells ([2]; 6 h): NC
H-2Mα (U35323) gene expression, stimulated versus unstimulated D1 cells ([2]; 6 h): NC
H-2Mβ1 (U35323) gene expression, stimulated versus unstimulated D1 cells ([2]; 6 h): NC
I-Aα (K01923) gene expression, stimulated versus unstimulated D1 cells ([2]; 6 h): NC
I-Aβ (V01527) gene expression, stimulated versus unstimulated D1 cells ([2]; 6 h): NC
IL-6 (J03783) gene expression, stimulated versus unstimulated D1 cells ([2]; 6 h): NC
IL-12p40 (M86671) gene expression, stimulated versus unstimulated D1 cells ([2]; 6 h): NC
IL-IRA (M64404) gene expression, stimulated versus unstimulated D1 cells ([2]; 6 h): NC
Jaw1 (U10484) gene expression, stimulated versus unstimulated D1 cells ([2]; 6 h): NC
Ki-67 (X82786) gene expression, stimulated versus unstimulated D1 cells ([2]; 6 h): NC
MIP-1α (M73061) gene expression, stimulated versus unstimulated D1 cells ([2]; 6 h): NC
MIP-2 (X53798) gene expression, stimulated versus unstimulated D1 cells ([2]; 6 h): NC
Macrostatin (X68273) gene expression, stimulated versus unstimulated D1 cells ([2]; 6 h): NC
OX40L (U12763) gene expression, stimulated versus unstimulated D1 cells ([2]; 6 h): NC
PA28 (U60329) gene expression, stimulated versus unstimulated D1 cells ([2]; 6 h): NC
RCK (D50494) gene expression, stimulated versus unstimulated D1 cells ([2]; 6 h): NC
TAP-1cas (M55637) gene expression, stimulated versus unstimulated D1 cells ([2]; 6 h): NC
TIS (D86344) gene expression, stimulated versus unstimulated D1 cells ([2]; 6 h): NC
TMP (U25633) gene expression, stimulated versus unstimulated D1 cells ([2]; 6 h): NC
TSA1 (U47737) gene expression, stimulated versus unstimulated D1 cells ([2]; 6 h): NC
c-1AP-I (L49433) gene expression, stimulated versus unstimulated D1 cells ([2]; 6 h): NC
cyclin A (Z26580) gene expression, stimulated versus unstimulated D1 cells ([2]; 6 h): NC
cyclin B1 (X64713) gene expression, stimulated versus unstimulated D1 cells ([2]; 6 h): NC
cyclin B2 (X66032) gene expression, stimulated versus unstimulated D1 cells ([2]; 6 h): NC
cyclin D2 (M83749) gene expression, stimulated versus unstimulated D1 cells ([2]; 6 h): NC
serum amyloid (X03505) gene expression, stimulated versus unstimulated D1 cells ([2]; 6 h): NC
βig-h3 (L19932) gene expression, stimulated versus unstimulated D1 cells ([2]; 6 h): NC
BTG1 (L16846) gene expression, stimulated versus unstimulated D1 cells ([2]; 18 h): NC
CD14 (M34510) gene expression, stimulated versus unstimulated D1 cells ([2]; 18 h): NC
CD37 (U18372) gene expression, stimulated versus unstimulated D1 cells ([2]; 18 h): NC
CYL-1 (M64403) gene expression, stimulated versus unstimulated D1 cells ([2]; 18 h): NC
Clqα (X58861) gene expression, stimulated versus unstimulated D1 cells ([2]; 18 h): NC
F4-80 (X93328) gene expression, stimulated versus unstimulated D1 cells ([2]; 18 h): NC
GAS (U19860) gene expression, stimulated versus unstimulated D1 cells ([2]; 18 h): NC
H-2Mα (U35323) gene expression, stimulated versus unstimulated D1 cells ([2]; 18 h): NC
H-2Mβ1 (U35323) gene expression, stimulated versus unstimulated D1 cells ([2]; 18 h): NC
I-Aα (K01923) gene expression, stimulated versus unstimulated D1 cells ([2]; 18 h): NC
I-Aβ (V01527) gene expression, stimulated versus unstimulated D1 cells ([2]; 18 h): NC
IL-6 (J03783) gene expression, stimulated versus unstimulated D1 cells ([2]; 18 h): NC
IL-12p40 (M86671) gene expression, stimulated versus unstimulated D1 cells ([2]; 18 h): NC
IL-IRA (M64404) gene expression, stimulated versus unstimulated D1 cells ([2]; 18 h): NC
MIP-1α (M73061) gene expression, stimulated versus unstimulated D1 cells ([2]; 18 h): NC
MIP-2 (X53798) gene expression, stimulated versus unstimulated D1 cells ([2]; 18 h): NC
Macrostatin (X68273) gene expression, stimulated versus unstimulated D1 cells ([2]; 18 h): NC
OX40L (U12763) gene expression, stimulated versus unstimulated D1 cells ([2]; 18 h): NC
PA28 (U60329) gene expression, stimulated versus unstimulated D1 cells ([2]; 18 h): NC
RCK (D50494) gene expression, stimulated versus unstimulated D1 cells ([2]; 18 h): NC
TAP-1cas (M55637) gene expression, stimulated versus unstimulated D1 cells ([2]; 18 h): NC
TIS (D86344) gene expression, stimulated versus unstimulated D1 cells ([2]; 18 h): NC
TSA1 (U47737) gene expression, stimulated versus unstimulated D1 cells ([2]; 18 h): NC
cyclin A (Z26580) gene expression, stimulated versus unstimulated D1 cells ([2]; 18 h): NC
cyclin D2 (M83749) gene expression, stimulated versus unstimulated D1 cells ([2]; 18 h): NC
mMCM2 (D86725) gene expression, stimulated versus unstimulated D1 cells ([2]; 18 h): NC
properdin (X12905) gene expression, stimulated versus unstimulated D1 cells ([2]; 18 h): NC
βig-h3 (L19932) gene expression, stimulated versus unstimulated D1 cells ([2]; 18 h): NC
doubling time of activated D1 cells [3]: 130 h
growth arrest of D1 cells ([3]; after stimulation): only a strong proliferation slow down but not a definitive growth arrest

CpG: oligo DNA containing the unmethylated CpG motif, TCCATGACGTTCCTGATGCT (SEQ ID NO. 5), recognized by TLR9 (listed as DNA, further chemistry not given here)
induction of IL-2 production/secretion by DC [1]: efficient in stimulating DC to secrete IL-2
